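Assay format: 96-well plates, 48-hour exposure. GI50: concentration for 50% inhibition of growth.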 Activity calls are given as the source filed them. No stated cut-off is given here; in the data, active = GI50 up to about 1.1 µM and inactive = higher.
Experiments:
Assay in all cases: NCI-60 cell line screen, 48 h
HCT-116 = system: HCT-116
UACC-62 = system: UACC-62
MOLT-4 = system: MOLT-4
NCI-H226 = system: NCI-H226
UO-31 = system: UO-31
HCT-15 = system: HCT-15
SK-MEL-28 = system: SK-MEL-28
M14 = system: M14
PC-3 = system: PC-3
TK-10 = system: TK-10
OVCAR-3 = system: OVCAR-3
MDA-MB-231 = system: MDA-MB-231
OVCAR-8 = system: OVCAR-8
HOP-92 = system: HOP-92
MDA-MB-435 = system: MDA-MB-435
NCI/ADR-RES = system: NCI/ADR-RES
SNB-75 = system: SNB-75
ACHN = system: ACHN
CCRF-CEM = system: CCRF-CEM

With `COc1ccc(N2C(=O)C3c4[nH]c5cccc(Cl)c5c4C4CCC(C(C)(C)C)CC4C3C2=O)cc1` (centres undefined) the GI50 (HCT-116) was > 100 µM (inactive), the GI50 (UACC-62) was > 100 µM (inactive) and the GI50 (MOLT-4) was > 100 µM (inactive). The GI50 (NCI-H226) was > 100 µM (inactive), the GI50 (UO-31) was > 100 µM (inactive) and the GI50 (HCT-15) was over 100 µM. For the same compound, the GI50 (SK-MEL-28) was > 100 µM (inactive), the GI50 (M14) was > 100 µM (inactive) and the GI50 (PC-3) was > 100 µM (inactive). For the same compound, the GI50 (TK-10) was > 100 µM (inactive), the GI50 (OVCAR-3) was > 100 µM (inactive) and the GI50 (MDA-MB-231) was > 100 µM (inactive). The GI50 (OVCAR-8) was 84.3 µM (inactive), the GI50 (HOP-92) was 83.2 µM (inactive) and the GI50 (MDA-MB-435) was > 100 µM (inactive). The GI50 (NCI/ADR-RES) was > 100 µM (inactive), the GI50 (SNB-75) was 19.1 µM (inactive) and the GI50 (ACHN) was > 100 µM (inactive).
`Cn1cc2c3ccccc3nc-2c2ccccc21` [ISOCRYPTOLEPINE] was tested, and the GI50 (HCT-116) was 1 µM (active), the GI50 (UACC-62) was 1.6 µM (inactive) and the GI50 (MOLT-4) was 0.421 µM (active). For the same compound, the GI50 (UO-31) was 1.4 µM (inactive), the GI50 (HCT-15) was 1.97 µM and the GI50 (SK-MEL-28) was 2.38 µM (inactive). The GI50 (M14) was 1.63 µM (inactive), the GI50 (PC-3) was 2.52 µM (inactive) and the GI50 (CCRF-CEM) was 1.45 µM (inactive). For the same compound, the GI50 (TK-10) was 3.93 µM (inactive), the GI50 (OVCAR-3) was 2.36 µM (inactive) and the GI50 (MDA-MB-231) was 2.35 µM (inactive). The GI50 (OVCAR-8) was 1.6 µM (inactive), the GI50 (HOP-92) was 1.91 µM (inactive) and the GI50 (MDA-MB-435) was 2.39 µM (inactive). For the same compound, the GI50 (NCI/ADR-RES) was 1.72 µM (inactive), the GI50 (SNB-75) was 1.8 µM (inactive) and the GI50 (ACHN) was 1.71 µM (inactive).
With `O=C1CSC(c2ccccc2[N+](=O)[O-])N1c1ccc(-c2ccc(-n3c(-c4ccccc4)nc4ccccc4c3=O)cc2)cc1` (centres undefined) the GI50 (HCT-116) was 82.6 µM (inactive), the GI50 (UACC-62) was 36.6 µM (inactive) and the GI50 (MOLT-4) was 43.2 µM (inactive). The GI50 (NCI-H226) was > 100 µM (inactive), the GI50 (UO-31) was 29.9 µM (inactive) and the GI50 (HCT-15) was 74.3 µM. The GI50 (SK-MEL-28) was > 100 µM (inactive), the GI50 (M14) was > 100 µM (inactive) and the GI50 (PC-3) was > 100 µM (inactive). The GI50 (CCRF-CEM) was 46.2 µM (inactive), the GI50 (TK-10) was > 100 µM (inactive) and the GI50 (OVCAR-3) was > 100 µM (inactive). For the same compound, the GI50 (MDA-MB-231) was > 100 µM (inactive), the GI50 (OVCAR-8) was > 100 µM (inactive) and the GI50 (HOP-92) was 46.6 µM (inactive). The GI50 (MDA-MB-435) was > 100 µM (inactive), the GI50 (NCI/ADR-RES) was 86.5 µM (inactive) and the GI50 (SNB-75) was 18.4 µM (inactive). For the same compound, the GI50 (ACHN) was > 100 µM (inactive).
In the case of `COc1ccc(OC)c2sc(N3C(=O)/C(=C/c4ccc(SC)cc4)N=C3c3ccccc3)nc12`, the GI50 (HCT-116) is reported as 18.7 µM (inactive), the GI50 (UACC-62) is reported as 31.5 µM (inactive) and the GI50 (MOLT-4) is reported as 22.3 µM (inactive). The GI50 (UO-31) was 24.2 µM (inactive), the GI50 (HCT-15) was 43.1 µM and the GI50 (SK-MEL-28) was > 100 µM (inactive). The GI50 (M14) was 21.2 µM (inactive), the GI50 (PC-3) was 21.7 µM (inactive) and the GI50 (CCRF-CEM) was 8.17 µM (inactive). For the same compound, the GI50 (TK-10) was > 100 µM (inactive), the GI50 (OVCAR-3) was 20.4 µM (inactive) and the GI50 (MDA-MB-231) was > 100 µM (inactive). The GI50 (OVCAR-8) was 27.7 µM (inactive), the GI50 (HOP-92) was 55.7 µM (inactive) and the GI50 (MDA-MB-435) was 17.2 µM (inactive). For the same compound, the GI50 (NCI/ADR-RES) was 29.3 µM (inactive), the GI50 (SNB-75) was 18.3 µM (inactive) and the GI50 (ACHN) was 28.9 µM (inactive).
In the case of `CN(C)CCCNC(=O)CNC(=O)c1cc(NC(=O)c2cc(NC(=O)c3cc(NC(=O)CCNC(=O)c4cc(NC(=O)c5cc(NC(=O)c6nccn6C)cn5C)cn4C)cn3C)cn2C)cn1C`, the GI50 (HCT-116) is reported as > 100 µM (inactive), the GI50 (MOLT-4) is reported as 20.8 µM (inactive) and the GI50 (NCI-H226) is reported as > 100 µM (inactive). The GI50 (UO-31) was > 100 µM (inactive), the GI50 (HCT-15) was over 100 µM and the GI50 (SK-MEL-28) was > 100 µM (inactive). For the same compound, the GI50 (M14) was > 100 µM (inactive), the GI50 (PC-3) was > 100 µM (inactive) and the GI50 (CCRF-CEM) was 24.5 µM (inactive). For the same compound, the GI50 (TK-10) was > 100 µM (inactive), the GI50 (OVCAR-3) was > 100 µM (inactive) and the GI50 (MDA-MB-231) was > 100 µM (inactive). For the same compound, the GI50 (OVCAR-8) was > 100 µM (inactive), the GI50 (HOP-92) was > 100 µM (inactive) and the GI50 (MDA-MB-435) was > 100 µM (inactive). The GI50 (NCI/ADR-RES) was > 100 µM (inactive), the GI50 (SNB-75) was 41.3 µM (inactive) and the GI50 (ACHN) was > 100 µM (inactive).
For `Cc1nc(Nc2nc3ccccc3[nH]2)nc(Cl)c1CCCl`, the GI50 (HCT-116) was > 100 µM (inactive), the GI50 (UACC-62) was > 100 µM (inactive) and the GI50 (MOLT-4) was > 100 µM (inactive). The GI50 (NCI-H226) was > 100 µM (inactive), the GI50 (UO-31) was > 100 µM (inactive) and the GI50 (HCT-15) was over 100 µM. The GI50 (SK-MEL-28) was > 100 µM (inactive), the GI50 (M14) was > 100 µM (inactive) and the GI50 (PC-3) was > 100 µM (inactive). The GI50 (CCRF-CEM) was > 100 µM (inactive), the GI50 (TK-10) was > 100 µM (inactive) and the GI50 (MDA-MB-231) was > 100 µM (inactive). For the same compound, the GI50 (OVCAR-8) was > 100 µM (inactive), the GI50 (HOP-92) was < 0.01 µM (active) and the GI50 (MDA-MB-435) was > 100 µM (inactive). For the same compound, the GI50 (NCI/ADR-RES) was > 100 µM (inactive), the GI50 (SNB-75) was 89.3 µM (inactive) and the GI50 (ACHN) was > 100 µM (inactive).
